Key:
[1] = mammalian tissues; cited from earlier work
cancer patients = conditions: anticancer clinical trials, Cancer Treatment Reports 71:95, 1987; cited from earlier work
[2] = tested on: rheumatoid arthritis patients; assay: Double-blind clinical trial of 10-deazaaminopterin versus methotrexate in rheumatoid arthritis: toxicity evaluation; type: in vivo, human; conditions: for Toxicity: Dizziness / Toxicity: Gastrointestinal / Toxicity: Leukopenia / Toxicity: Rash: n = 7 per arm, 18 week trial
Protocol: The double-blind clinical trail of 10-deazaaminopterin versus methotrexate in rheumatoid arthritis was conducted at Universidad Peruana Cayetano Heredia, Lima, Peru. In order to detect 30% differences in either direction for both -efficacy and toxicity a sample size of 20 was used. The trial was conducted according to the following protocol.
The null hypotheses to be investigated included the following
Randomization was performed before the study began; an equal number of patients in each arm of the protocol was secured. Codes were made available to the investigator in sealed envelopes at the beginning of the trial; they were allowed to be opened by the investigator, only if felt to be mandatory for patient management. Patients received a three week supply of either 10-deazaaminopterin or methotrexate. […] Initially the patients received three capsules/week (or 7.5 mg). The capsules were taken at 12 hour intervals over a 24 hour period (8 a.m.-8 p.m. -8 a.m. the following day).
A data base which included a complete history, physical and laboratory exams was completed (Visit 0 or eligibility visit). […] If the patient was felt to be eligible, he/she was entered into the trial the following week (Visit 1) at which time disease activity was assessed and a functional test completed. Patients returned to the clinic every three weeks at which time joint counts were performed, side effects monitored and laboratory studies obtained. An assessment of response was done at week nine (Visit 3). At week 18 (Visit 6) or before (if the patient decides to be removed from the trial) the patient would have a complete exit evaluation, similar to the one performed on visit 1.
Joint counts for pain/tenderness in 60 diarthrodial joints and for swelling in 58 diarthrodial joints Laboratory tests included: CBC, with platelets and differential, Creatinine, SGOT and Alkaline phosphatase. […] 5 ml of sera were secured at entry and at study completion and stored at -20° C. for further studies.
Adverse effects were determined by interviewing the patient; each new symptom developing since the previous visit were recorded as to the date or onset, date of cessation, and whether it was felt to be related or unrelated to the study drug(s).
Minor itching and skin rashes could be handled with antihistaminics or topical steroids; a drop in the WBC ([…]) or in the platelets (<100,000/mm^3), or an increase in the liver enzymes ×2 normal), or an increase in the baseline creatinine (×2 normal) would prompt holding the drug for one week; if the values improved, patients may be restarted on the drug; if no improvement occurs in 3 weeks, the patient should be withdrawn. […] If no improvement occurs in 3 weeks, the patient should be withdrawn from the trial. If a patient develops a serious intercurrent infectious process, or requires elective or emergency surgery during the study period, the patient should be withdrawn from the trial.

dihydrofolate reductase = conditions: 10-deazaaminopterin compared with methotrexate; cited from earlier work
[3] = tested on: patients receiving methotrexate; conditions: cited from earlier work

Row | SMILES | Metabolism to poly-gamma-glutamates [1] | Bone marrow depression (cancer patients) | Nausea and vomiting (cancer patients) | Toxicity in humans versus methotrexate (in words) ([2]; clinical trials (not further specified), compared with methotrexate) | Frequency of toxicity (in words) ([2]; human, in vivo) | Toxicity: Dizziness [2] | Toxicity: Gastrointestinal [2] | Toxicity: Leukopenia [2] | Toxicity: Rash [2] | Inhibition of dihydrofolate reductase (in words) (dihydrofolate reductase) | Patients who experienced an adverse drug reaction during treatment ([3]; human, in vivo) | Patients with toxic manifestations (nausea, stomatitis, elevated liver function tests, cytopenias, pulmonary toxicity) ([3]; patients receiving methotrexate) | Toxicity of methotrexate (in words) ([3]; use in rheumatoid arthritis)
1 | Nc1nc(N)c2nc(CCc3ccc(C(=O)NC(CCC(=O)O)C(=O)O)cc3)cnc2n1 (stereo not shown) [10-deazaaminopterin] | also metabolized to its poly-gamma-glutamates in mammalian tissues | minimal | mild | remarkably less toxic to humans | low frequency of toxicity | 0 | 2 | 0 | 1 | inhibit this enzyme to approximately the same magnitude |  |  | 
2 | CN(Cc1cnc2nc(N)nc(N)c2n1)c1ccc(C(=O)N[C@@H](CCC(=O)O)C(=O)O)cc1 [methotrexate, reference compound] | metabolism of methotrexate to its poly-gamma-glutamates |  |  |  |  | 1 | 2 | 1 | 0 | inhibit this enzyme to approximately the same magnitude | 93 % of patients | 30-60 % of patients | very toxic drug

From patent US5030634A (priority 1990, dated 1991)
